Measured values published in US10287615B2, “Sophorolactone production” (ECOVER CO-ORDINATION CENTER N.V., priority 2011, dated 2019).

Key:
[1] = Storage stability of non-aqueous sophorolactone solution, HPLC-ELSD; type: physicochemical; details: for acid sophorolipid peak (hydrolysis of lactone), share of the total peak area: 10 g sophorolactone in 90 g ethyllactate or isoamyl lactate
Experimental: Both samples were split in 50 ml samples and stored at 4° C. and at 40° C. respectively. After 2 months of storage they were analyzed with HPLC-ELSD. The results are as illustrated by the chromatograms depicted in FIG. 7 and FIG. 8. After 2 months of storage at either 4° C., result depicted in FIG. 7, or 40° C., result depicted in FIG. 8, of this non-aqueous sophorolactone solution only a negligible hydrolysis of lactone material occurred as evidenced by an acid sophorolipid peak appearing at 30.5 min in the grey overlay graph. This peak represents less than 1% of the total peak area.

[2] = Stain removal efficacy in automatic dishwashing on soil plates; details: for average Rw (Y reflection value for washed): 1.4% surfactant in base formula, 50° C. eco; for soil removal: Rw minus Rs
Excerpt: A sophorolipid lactone sample obtained from the experiment described in Example 8 was centrifuged, spread out on Torck paper and allowed to air dry. The resulting solid was crushed with a coffee mill to a fine powder and dried further with compressed air to >98 wt %. This powder was compared as to its efficiency in automatic dishwashing versus a low foaming alkylpolyglucoside, in particular Simulsol AS48, available from Seppic SA, at equal active matter content. […] 20 gram of the base formula was dosed in a ZDF211 dishwasher. Program D 50° C. eco was run.
In the automatic dishwasher 7 types of soil plates (available from CFT, Vlaardingen, The Netherlands) mounted in a stainless steel holding frame were inserted.

[3] = Static surface tension, pending drop method on a Krüss DSA100 tensiometer; type: physicochemical; details: water 71.26
Experimental: The lactone obtained in Example 10 was partially hydrolysed in degrees ranging from 0 to 2 equivalents using potassium hydroxide. Partial alkaline hydrolysis in this context implies that less than 3 mol KOH were added per mol lactone. As a consequence only part of the 3 ester bonds, i.e. the lactonic bond and the two acetyl ester bonds, was hydrolysed and a mixture of various sophorolipids formed.
The static surface tension of the partial hydrolysates obtained in the above described experiment was measured according to the pending drop method on a Krüss DSA100 tensiometer.

Question: What does the source list for sophorolactone?
Answer: storage stability of non-aqueous solution (chromatogram overlay) ([1]; 2 months of storage at 40° C.): storage stable; acid sophorolipid peak (hydrolysis of lactone), share of the total peak area ([1]; 2 months of storage at 4° C.): less than 1%; acid sophorolipid peak (hydrolysis of lactone), share of the total peak area ([1]; 2 months of storage at 40° C.): less than 1%; storage stability of non-aqueous solution (chromatogram overlay) ([1]; storage at 4° C. for 2 months): storage stable; soil removal rates, overall comparison ([2]; automatic dishwashing, equal active matter content, alkaline pH of about 9.8): superior to Simulsol AS48; average Rw (Y reflection value for washed) ([2]; stain Cheese DM06): 41.9; soil removal ([2]; stain Cheese DM06): 16.9; average Rw (Y reflection value for washed) ([2]; stain Chocolate DM75): 24.9; soil removal ([2]; stain Chocolate DM75): 7.1; average Rw (Y reflection value for washed) ([2]; stain Coffee DM81): 77.5; soil removal ([2]; stain Coffee DM81): 7.3; average Rw (Y reflection value for washed) ([2]; stain Egg yolk/milk DM31): 52.0; soil removal ([2]; stain Egg yolk/milk DM31): 6.8; average Rw (Y reflection value for washed) ([2]; stain Mix starch DM77): 37.6; soil removal ([2]; stain Mix starch DM77): 1.6; average Rw (Y reflection value for washed) ([2]; stain Red wine DM51): 72.4; soil removal ([2]; stain Red wine DM51): 17.1; average Rw (Y reflection value for washed) ([2]; stain Tea DM11): 75.7; soil removal ([2]; stain Tea DM11): 14.6; Surface tension ([3]; Conc. 10 ppm): 71.00 mN/m; Surface tension ([3]; Conc. 50 ppm): 66.21 mN/m; Surface tension ([3]; Conc. 100 ppm): 63.02 mN/m; Surface tension ([3]; Conc. 250 ppm): 47.67 mN/m; Surface tension ([3]; Conc. 1000 ppm): 36.69 mN/m; Surface tension ([3]; Conc. 2000 ppm): 36.26 mN/m; Surface tension ([3]; Conc. 5000 ppm): 35.85 mN/m; Surface tension ([3]; Conc. 10000 ppm): 35.33 mN/m; Surface tension ([3]; Conc. 25000 ppm): 35.54 mN/m; Surface tension ([3]; Conc. 50000 ppm): 35.14 mN/m
